Measured values as given in ChEMBL document CHEMBL1152860, “Synthesis and antiproliferative activity of 3-amino-N-phenyl-1H-indazole-1-carboxamides” (2009).

Columns and labels:
Assay type in all cases: functional
[1] = system: HT-29; experiment: Growth inhibition of human HT-29 cells after 48 hrs by SRB assay; details: HT-29, 48 h
[2] = system: HL-60(TB); experiment: Growth inhibition of human HL-60(TB) cells after 48 hrs by SRB assay; details: HL-60, 48 h
[3] = system: K562; experiment: Growth inhibition of human K562 cells after 48 hrs by SRB assay; details: K562, 48 h
[4] = system: MOLT-4; experiment: Growth inhibition of human MOLT4 cells after 48 hrs by SRB assay; details: MOLT-4, 48 h
[5] = system: RPMI-8226; experiment: Growth inhibition of human RPMI8226 cells after 48 hrs by SRB assay; details: RPMI-8226, 48 h
[6] = system: SR; experiment: Growth inhibition of human SR cells after 48 hrs by SRB assay
[7] = system: A549; experiment: Growth inhibition of human A549 cells after 48 hrs by SRB assay; details: A549, 48 h
[8] = system: EKVX; experiment: Growth inhibition of human EKVX cells after 48 hrs by SRB assay
[9] = system: HOP-62; experiment: Growth inhibition of human HOP62 cells after 48 hrs by SRB assay; details: HOP-62, 48 h
[10] = system: HOP-92; experiment: Growth inhibition of human HOP92 cells after 48 hrs by SRB assay; details: HOP-92, 48 h
[11] = system: NCI-H226; experiment: Growth inhibition of human NCI-H226 cells after 48 hrs by SRB assay; details: NCI-H226, 48 h
[12] = system: NCI-H23; experiment: Growth inhibition of human NCI-H23 cells after 48 hrs by SRB assay; details: NCI-H23, 48 h
[13] = system: NCI-H322M; experiment: Growth inhibition of human NCI-H322M cells after 48 hrs by SRB assay
[14] = system: NCI-H460; experiment: Growth inhibition of human NCI-H460 cells after 48 hrs by SRB assay; details: NCI-H460, 48 h
[15] = system: NCI-H522; experiment: Growth inhibition of human NCI-H522 cells after 48 hrs by SRB assay; details: NCI-H522, 48 h
[16] = system: COLO 205; experiment: Growth inhibition of human COLO205 cells after 48 hrs by SRB assay; details: COLO 205, 48 h
[17] = system: HCC 2998; experiment: Growth inhibition of human HCC2998 cells after 48 hrs by SRB assay; details: HCC 2998, 48 h
[18] = system: HCT-116; experiment: Growth inhibition of human HCT116 cells after 48 hrs by SRB assay; details: HCT-116, 48 h
[19] = system: HCT-15; experiment: Growth inhibition of human HCT15 cells after 48 hrs by SRB assay; details: HCT-15, 48 h
[20] = system: LOX IMVI; experiment: Growth inhibition of human LOXIMVI cells after 48 hrs by SRB assay
[21] = system: Malme-3M; experiment: Growth inhibition of human MALME-3M cells after 48 hrs by SRB assay
[22] = system: M14; experiment: Growth inhibition of human M14 cells after 48 hrs by SRB assay; details: M14, 48 h
[23] = system: SK-MEL-2; experiment: Growth inhibition of human SK-MEL-2 cells after 48 hrs by SRB assay; details: SK-MEL-2, 48 h
[24] = system: SK-MEL-28; experiment: Growth inhibition of human SK-MEL-28 cells after 48 hrs by SRB assay; details: SK-MEL-28, 48 h
[25] = system: SK-MEL-5; experiment: Growth inhibition of human SK-MEL-5 cells after 48 hrs by SRB assay; details: SK-MEL-5, 48 h
[26] = system: UACC-257; experiment: Growth inhibition of human UACC257 cells after 48 hrs by SRB assay; details: UACC-257, 48 h
[27] = system: UACC-62; experiment: Growth inhibition of human UACC62 cells after 48 hrs by SRB assay; details: UACC-62, 48 h
[28] = system: IGROV-1; experiment: Growth inhibition of human IGROV1 cells after 48 hrs by SRB assay; details: IGROV-1, 48 h
[29] = system: OVCAR-3; experiment: Growth inhibition of human OVCAR-3 cells after 48 hrs by SRB assay; details: OVCAR-3, 48 h
[30] = system: OVCAR-4; experiment: Growth inhibition of human OVCAR4 cells after 48 hrs by SRB assay; details: OVCAR-4, 48 h
[31] = system: OVCAR-5; experiment: Growth inhibition of human OVCAR5 cells after 48 hrs by SRB assay; details: OVCAR-5, 48 h
[32] = system: OVCAR-8; experiment: Growth inhibition of human OVCAR8 cells after 48 hrs by SRB assay; details: OVCAR-8, 48 h
[33] = system: SK-OV-3; experiment: Growth inhibition of human SKOV3 cells after 48 hrs by SRB assay; details: SK-OV-3, 48 h
[34] = system: 786-0; experiment: Growth inhibition of human 786-0 cells after 48 hrs by SRB assay; details: 786-0, 48 h
[35] = system: A498; experiment: Growth inhibition of human A498 cells after 48 hrs by SRB assay; details: A498, 48 h
[36] = system: ACHN; experiment: Growth inhibition of human ACHN cells after 48 hrs by SRB assay
[37] = system: CAKI-1; experiment: Growth inhibition of human Caki1 cells after 48 hrs by SRB assay; details: CAKI-1, 48 h
[38] = system: RXF 393; experiment: Growth inhibition of human […] cells after 48 hrs by SRB assay; details: RXF 393, 48 h
[39] = system: SN12C; experiment: Growth inhibition of human SN12C cells after 48 hrs by SRB assay
[40] = system: TK-10; experiment: Growth inhibition of human TK10 cells after 48 hrs by SRB assay; details: TK-10, 48 h
[41] = system: UO-31; experiment: Growth inhibition of human UO31 cells after 48 hrs by SRB assay; details: UO-31, 48 h
[42] = system: PC-3; experiment: Growth inhibition of human PC3 cells after 48 hrs by SRB assay; details: PC-3, 48 h
[43] = system: DU-145; experiment: Growth inhibition of human DU145 cells after 48 hrs by SRB assay; details: DU-145, 48 h
[44] = system: MCF7; experiment: Growth inhibition of human MCF7 cells after 48 hrs by SRB assay; details: MCF7, 48 h
[45] = system: NCI/ADR-RES; experiment: Growth inhibition of human NCI/ADR-RES cells after 48 hrs by SRB assay
[46] = system: MDA-MB-231; experiment: Growth inhibition of human MDA-MB-231 cells after 48 hrs by SRB assay; details: MDA-MB-231, 48 h
[47] = Growth inhibition of human Hs 578T cells after 48 hrs by SRB assay
[48] = system: MDA-MB-435; experiment: Growth inhibition of human MDA-MB-435 cells after 48 hrs by SRB assay; details: MDA-MB-435, 48 h
[49] = system: BT-549; experiment: Growth inhibition of human BT549 cells after 48 hrs by SRB assay; details: BT-549, 48 h
[50] = system: T47D; experiment: Growth inhibition of human T47D cells after 48 hrs by SRB assay
[51] = system: KM12; experiment: Growth inhibition of human KM12 cells after 48 hrs by SRB assay; details: KM12, 48 h
[52] = system: SW-620; experiment: Growth inhibition of human SW620 cells after 48 hrs by SRB assay; details: SW-620, 48 h
[53] = system: SF-268; experiment: Growth inhibition of human SF268 cells after 48 hrs by SRB assay; details: SF-268, 48 h
[54] = system: SF-295; experiment: Growth inhibition of human SF295 cells after 48 hrs by SRB assay; details: SF-295, 48 h
[55] = system: SF-539; experiment: Growth inhibition of human SF539 cells after 48 hrs by SRB assay; details: SF-539, 48 h
[56] = system: SNB-19; experiment: Growth inhibition of human SNB19 cells after 48 hrs by SRB assay; details: SNB-19, 48 h
[57] = system: SNB-75; experiment: Growth inhibition of human SNB75 cells after 48 hrs by SRB assay; details: SNB-75, 48 h
[58] = system: U-251; experiment: Growth inhibition of human U251 cells after 48 hrs by SRB assay; details: U-251, 48 h

Work on `O=C(Nc1ccc(Cc2ccccc2)cc1)Nc1nn(C(=O)Nc2ccc(Cc3ccccc3)cc2)c2ccccc12` yielded a GI50 [1] greater than 100 µM, a GI50 [2] greater than 100 µM and a GI50 [3] of 40.5 µM. It also gave a GI50 [4] of 63.2 µM, a GI50 [5] greater than 100 µM and a GI50 [6] of 16.3 µM. It also gave a GI50 [7] greater than 100 µM, a GI50 [8] greater than 100 µM and a GI50 [9] of 59.7 µM. The GI50 [10] was 18 µM, the GI50 [11] was greater than 100 µM and the GI50 [12] was greater than 100 µM. It also gave a GI50 [13] greater than 100 µM, a GI50 [14] greater than 100 µM and a GI50 [15] greater than 100 µM. The GI50 [16] was greater than 100 µM, the GI50 [17] was greater than 100 µM and the GI50 [18] was greater than 100 µM. The GI50 [19] was greater than 100 µM, the GI50 [20] was 71 µM and the GI50 [21] was greater than 100 µM. For the same compound, the GI50 [22] was greater than 100 µM, the GI50 [23] was greater than 100 µM and the GI50 [24] was greater than 100 µM. The GI50 [25] was greater than 100 µM, the GI50 [26] was greater than 100 µM and the GI50 [27] was 41.6 µM. It also gave a GI50 [28] greater than 100 µM, a GI50 [29] greater than 100 µM and a GI50 [30] greater than 100 µM. For the same compound, the GI50 [31] was greater than 100 µM, the GI50 [32] was greater than 100 µM and the GI50 [33] was greater than 100 µM. The GI50 [34] was greater than 100 µM, the GI50 [35] was 82.4 µM and the GI50 [36] was greater than 100 µM. For the same compound, the GI50 [37] was greater than 100 µM, the GI50 [38] was 30.4 µM and the GI50 [39] was greater than 100 µM. The GI50 [40] was greater than 100 µM, the GI50 [41] was greater than 100 µM and the GI50 [42] was greater than 100 µM. It also gave a GI50 [43] of 80 µM, a GI50 [44] greater than 100 µM and a GI50 [45] greater than 100 µM. It also gave a GI50 [46] of 47.1 µM, a GI50 [47] of 74.2 µM and a GI50 [48] greater than 100 µM. It also gave a GI50 [49] greater than 100 µM, a GI50 [50] greater than 100 µM and a GI50 [51] greater than 100 µM. The GI50 [52] was greater than 100 µM, the GI50 [53] was 75.6 µM and the GI50 [54] was greater than 100 µM. It also gave a GI50 [55] greater than 100 µM, a GI50 [56] greater than 100 µM and a GI50 [57] of 33.8 µM. For the same compound, the GI50 [58] was 70.2 µM.
